The assay has as its target T1, AR (Homo sapiens, UniProt P10275).
T1 construct: endogenous in cells; host or cells: VCaP cells
T1 sequence (P10275 1-920): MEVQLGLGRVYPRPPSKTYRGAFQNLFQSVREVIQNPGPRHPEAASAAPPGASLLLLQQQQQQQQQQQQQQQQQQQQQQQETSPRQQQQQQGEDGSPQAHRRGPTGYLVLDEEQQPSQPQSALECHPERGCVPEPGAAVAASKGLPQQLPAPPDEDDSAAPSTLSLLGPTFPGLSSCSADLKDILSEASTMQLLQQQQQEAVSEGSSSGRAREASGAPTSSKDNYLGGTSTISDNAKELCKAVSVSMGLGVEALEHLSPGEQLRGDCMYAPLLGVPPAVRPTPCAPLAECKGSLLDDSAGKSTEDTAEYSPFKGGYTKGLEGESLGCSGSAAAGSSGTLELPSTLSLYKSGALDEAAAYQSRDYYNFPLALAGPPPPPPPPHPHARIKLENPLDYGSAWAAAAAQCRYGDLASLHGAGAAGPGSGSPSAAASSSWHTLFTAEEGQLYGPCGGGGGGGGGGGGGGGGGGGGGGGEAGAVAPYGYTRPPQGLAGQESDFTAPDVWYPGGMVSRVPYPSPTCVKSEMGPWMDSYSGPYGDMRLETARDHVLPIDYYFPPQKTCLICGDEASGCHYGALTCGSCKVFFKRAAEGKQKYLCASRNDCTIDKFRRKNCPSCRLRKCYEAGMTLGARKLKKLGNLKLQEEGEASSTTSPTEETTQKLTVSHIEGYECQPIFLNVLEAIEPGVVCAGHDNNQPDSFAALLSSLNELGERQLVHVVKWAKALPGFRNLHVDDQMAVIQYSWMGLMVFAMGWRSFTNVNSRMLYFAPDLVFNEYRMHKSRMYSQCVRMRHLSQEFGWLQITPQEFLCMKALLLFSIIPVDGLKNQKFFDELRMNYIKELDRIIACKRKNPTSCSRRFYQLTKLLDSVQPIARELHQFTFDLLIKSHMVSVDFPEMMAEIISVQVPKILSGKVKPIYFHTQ
In words: VCAP AR Degradation Assay. The class given is cell-based. To be noted: for Y (AR degradation efficiency, % of DMSO control): class symbols *; for DC50: class symbols A-C, read-out: DC50. An outline of the steps:
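AR protein in lysates quantified by sandwich ELISA after 24 h exposure of VCaP cells at 37 °C to 10 concentrations (1:3 steps, 5 μM top, final). Four-parameter logistic fit of percent-of-DMSO levels gave DC50 (50% degradation), EC50 and minimal AR level Y.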

Broadly, the DC50 is the concentration at which degradation of the target reaches its halfway point.

Where only a bound is given, the exact number is not on record here.

Take `CC(C)c1cc(N2C(=S)N(c3ccc(C#N)c(Cl)c3)C(=O)C2(C)C)ccc1OCCN1C[C@@H](C)N(CC(=O)Nc2cccc(NC3CCC(=O)NC3=O)c2)[C@@H](C)C1` (stereo partly drawn) [Example 202, 2-((2S,6R)-4-(2-(4-(3-(3-chloro-4-cyanophenyl)-5,5-dimethyl-4-oxo-2-thioxoimidazolidin-1-yl)-2-isopropylphenoxy)ethyl)-2,6-dimethylpiperazin-1-yl)-N-(3-(2,6-dioxopiperidin-3-ylamino)phenyl)acetamide]: the “Y (AR degradation efficiency, % of DMSO control)” value is reported as “* (0<Y<=25%)” and the DC50 was less than 100 nM.

`CCc1cc(N2C(=S)N(c3ccc(C#N)c(C(F)(F)F)c3)C(=O)C2(C)C)ccc1OCCN1CCN(CC(=O)Nc2cc(Cl)cc(NC3CCC(=O)NC3=O)c2)C(C)(C)C1` (stereo not drawn) [Example 79, N-(3-chloro-5-(2,6-dioxopiperidin-3-ylamino)phenyl)-2-(4-(2-(4-(3-(4-cyano-3-(trifluoromethyl)phenyl)-5,5-dimethyl-4-oxo-2-thioxoimidazolidin-1-yl)-2-ethylphenoxy)ethyl)-2,2-dimethylpiperazin-1-yl)acetamide]: the “Y (AR degradation efficiency, % of DMSO control)” value is listed as “** (25%<Y<=35%)” and the DC50 was less than 100 nM.

Regarding `CC1(C)C(=O)N(c2cnc(C#N)c(C(F)(F)F)c2)C(=S)N1c1ccc(OCCN2CCN(CC(=O)Nc3cc(Cl)cc(NC4CCC(=O)NC4=O)c3)CC2)c(CCF)c1` (stereo not drawn) [Example 72, N-(3-chloro-5-(2,6-dioxopiperidin-3-ylamino)phenyl)-2-(4-(2-(4-(3-(6-cyano-5-(trifluoromethyl)pyridin-3-yl)-5,5-dimethyl-4-oxo-2-thioxoimidazolidin-1-yl)-2-(2-fluoroethyl)phenoxy)ethyl)piperazin-1-yl)acetamide], the “Y (AR degradation efficiency, % of DMSO control)” value was “* (0<Y<=25%)” and the DC50 was less than 100 nM.

Regarding `CCc1cc(N2C(=S)N(c3ccc(C#N)c(C(F)(F)F)c3)C(=O)C2(C)C)ccc1CCCN1CCN(CC(=O)Nc2cc(Cl)cc(NC3CCC(=O)NC3=O)c2)CC1` (stereo not drawn) [Example 89, N-(3-chloro-5-(2,6-dioxopiperidin-3-ylamino)phenyl)-2-(4-(3-(4-(3-(4-cyano-3-(trifluoromethyl)phenyl)-5,5-dimethyl-4-oxo-2-thioxoimidazolidin-1-yl)-2-ethylphenyl)propyl)piperazin-1-yl)acetamide], the “Y (AR degradation efficiency, % of DMSO control)” value is “* (0<Y<=25%)” and the DC50 was less than 100 nM.

`CC(C)c1cc(N2C(=S)N(c3ccc(C#N)c(C(F)(F)F)c3)C(=O)C2(C)C)cnc1OCCN1C[C@@H](C)N(CC(=O)Nc2cc(Cl)cc(NC3CCC(=O)NC3=O)c2)C[C@H]1C` (stereo partly drawn) [Example 214, N-(3-chloro-5-(2,6-dioxopiperidin-3-ylamino)phenyl)-2-((2R,5R)-4-(2-(5-(3-(4-cyano-3-(trifluoromethyl)phenyl)-5,5-dimethyl-4-oxo-2-thioxoimidazolidin-1-yl)-3-isopropylpyridin-2-yloxy)ethyl)-2,5-dimethylpiperazin-1-yl)acetamide]: the “Y (AR degradation efficiency, % of DMSO control)” value is on record as “** (25%<Y<=35%)” and the DC50 is 100 to 500 nM.

In the case of `CCc1cc(N2C(=S)N(c3ccc(C#N)c(Cl)c3)C(=O)C2(C)C)ccc1OCCN1C[C@@H](C)N(CC(=O)Nc2cccc(NC3CCC(=O)NC3=O)c2)[C@@H](C)C1` (stereo partly drawn) [Example 291, 2-((2S,6R)-4-(2-(4-(3-(3-chloro-4-cyanophenyl)-5,5-dimethyl-4-oxo-2-thioxoimidazolidin-1-yl)-2-ethylphenoxy)ethyl)-2,6-dimethylpiperazin-1-yl)-N-(3-((2,6-dioxopiperidin-3-yl)amino)phenyl)acetamide], the “Y (AR degradation efficiency, % of DMSO control)” value was “* (0<Y<=25%)” and the half-maximal degradation concentration (DC50) was less than 100 nM.

The values above are taken from patent US12404241B2 (Celgene Corporation, priority 2018, dated 2025).
